This is an account of results in US6777415B2, “Methods of inducing cancer cell death and tumor regression” (priority 2000, dated 2004).

One assay relates to Ras-transformed cells. Conditions: Ras-transformed cells (Alessi et al., 1995); cited from earlier work.
Another assay relates to MAPK pathway. Briefly: Time course of MAPK pathway inhibition after treatment. It counts as cell-based. The source says: (2) A “Ras signaling pathyway inhibitor” is defined herein as an agent that blocks the activity of any protein in the signal transduction pathway shown in FIG. 1. A particularly preferred Ras signaling pathway inhibitor is a “MEK inhibitor”, which is defined herein as an agent that blocks the in vitro enzyme activity of a MEK (MAPK/ERK kinase) protein (preferably inhibiting MEK1 and MEK2), and thus blocks the activation of a MAPK protein as evidenced by a block in the phosphorylation of the MAPK protein. This can be detected by western blot analysis for phosphorylated MAPK as described in, e.g., Dudley et al., Proc Natl Acad Sci. 92:7686-7689 (1995), and Favata et al., J Bio Chem. 273:18623-32(1998).
“Sustained effect” is defined herein as a prolonged/enhanced apoptotic response to combination treatment with a FPT I and a MEK1,2 inhibitor in comparison to single treatment alone. The consequences of a “sustained effect” can be monitored either by measurement of MAPK activity or cell death or apoptosis, as described in previously. The effective time course for inhibition of MAPK pathway by the individual drugs is dose dependent. […] (See, e.g., FIG. 6.

Assay [1] has as its system human tumor cell lines as xenografts. Conditions: immuno-compromised mice (Liu et al., 1998); cited from earlier work.
Another assay concerns human tumor cell lines. Conditions: variety of human tumor cell lines, in vitro (Liu et al., 1998); cited from earlier work.
Another assay concerns MEK. Conditions: Favata et al., 1998; cited from earlier work.

As to `COc1cccc(-c2cc(=O)c3ccccc3o2)c1N` [PD098059], the “effect on growth factor-mediated proliferation and anchorage-independent growth” value with Ras-transformed cells is listed as “blocks”.

For the compound `NC(=O)N1CCC(CC(=O)N2CCC(C3c4ncc(Br)cc4CCc4cc(Cl)cc(Br)c43)CC2)CC1` (stereo not drawn) [SCH 66336], in the assay on MAPK pathway, the “duration of the MAPK inhibitory effect after treatment” value is ≤ 72 h. The “time of optimal MAPK pathway inhibition after treatment” value with MAPK pathway (dose dependent) is 12 to 18 h. The “inhibition of growth as xenografts” value in assay [1] is recorded as “inhibition”. In addition, the “inhibition of anchorage-independent growth” value with human tumor cell lines was “inhibition of anchorage-independent growth”.

With `N#CC(=C(/N)Sc1ccccc1N)/C(C#N)=C(\N)Sc1ccccc1N` [U0126], in the assay with MEK, the “affinity of binding to MEK relative to PD098059” value is “higher affinity than PD098059”.
